Reference: publication PMC5716539, “The acute glucose lowering effect of specific GPR120 activation in mice is mainly driven by glucagon-like peptide 1” (PLoS ONE, 2017)

How the values were obtained:
[1] = test system: STC-1 cells; experiment: GLP-1 secretion from STC-1 cells; type: cell-based, mouse; details: 2 hours, active GLP-1, vs 0.1% DMSO
Procedure: STC-1 cells were cultured in DMEM (Invitrogen) supplemented with 10% horse serum (ThermoFisher Scientific), 2.5% FBS (Hyclone) and 1% Penicillin/Streptomycin in 96-well poly-D-Lysine coated plates to 80–90% confluence at 37°C, 5% CO2. Cells were washed and pre-incubated in assay buffer (HBSS with Ca^2+ and Mg^2+ containing 20 mM HEPES, 0.1% BSA (Sigma) and 20 nM sitagliptin (dipeptidyl peptidase 4 (DPP-4) inhibitor), for 30 min in 37°C. GPR120 agonists were added and cells were incubated for 2 hours in 37°C. DMSO (0.1%) was used as control. GLP-1 secretion was measured in the supernatants (GLP-1 active, Millipore) by fluorescence detection. Concentration of active GLP-1 was derived by interpolation from a GLP-1 standard curve.

[2] = target: T1, human GPR120 (Homo sapiens, UniProt Q5NUL3); experiment: β-arrestin recruitment (Tango) assay in U2OS-hGPR120 cells; type: cell-based
T1 construct: expressed in transfected cells
T1 sequence (Q5NUL3 1-361): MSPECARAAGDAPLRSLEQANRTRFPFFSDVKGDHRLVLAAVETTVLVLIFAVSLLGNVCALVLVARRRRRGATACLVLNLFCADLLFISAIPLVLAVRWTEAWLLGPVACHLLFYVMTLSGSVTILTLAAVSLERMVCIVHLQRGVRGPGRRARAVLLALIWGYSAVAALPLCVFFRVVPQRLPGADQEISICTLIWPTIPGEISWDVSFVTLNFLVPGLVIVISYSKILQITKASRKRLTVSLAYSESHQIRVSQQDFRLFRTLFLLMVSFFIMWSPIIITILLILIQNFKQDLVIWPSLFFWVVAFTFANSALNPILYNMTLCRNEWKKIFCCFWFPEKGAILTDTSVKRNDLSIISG
Procedure: U2OS-hGPR120 cells cultured in Freestyle medium (Invitrogen) were incubated for 5 hours with GPR120 agonists in 384-well Cell BIND plates (Corning) at 37°C, 95% humidity and 5% CO2. LiveBLAzer™ FRET B/G working solution (Invitrogen) was added and after 2 hours at room temperature fluorescence intensity (λex = 405 nm, λem = 530 and 460 nm) was detected using a Pherastar FS (BMG Labtech) according to the manufacturers protocol.

[3] = target: T1, human GPR120; experiment: cAMP assay in CHO-hGPR120 cells; type: cell-based; details: cAMP production in CHO-hGPR120 cells; mean ± SEM
Procedure: (§1) CHO-hGPR120 or CHO cells in HBSS (Invitrogen), 20 mM HEPES (Invitrogen), pH 7.4, 0.01% BSA, 1.5 mM 3-isobutyl-1-methylxanthine (Sigma) and d2-labeled cAMP (CisBio) were incubated with GPR120 agonists (1% DMSO) for 45 min at room temperature in white small-volume 384-well plates (Greiner). The reaction was terminated by addition of conjugate and lysis buffer (CisBio) supplemented with anti-cAMP Cryptate (CisBio).

[4] = target: T1, human GPR120; experiment: Calcium mobilization assay in CHO-hGPR120 cells; type: cell-based; details: for Calcium mobilization after Gαq inhibition: CHO-hGPR120 cells pre-treated with 1 μM QIC; for EC50: CHO-hGPR120 cells, mean ± SEM
Procedure: CHO-hGPR120 and CHO cells were cultured in DMEM/F-12 (Invitrogen) with 10% FBS (Sigma) and HEK293-mGPR40 in DMEM (Invitrogen) supplemented with 10% FBS in 384-well poly-D-Lysin coated microplates (Greiner) at 37°C, 95% humidity and 5% CO2. After 19 hours cell media was replaced with Calcium4 dye (Molecular Devices) in HBSS (Invitrogen), 20 mM HEPES (Invitrogen), pH 7.4 and 1.25 mM Probenecid (Sigma). After 1 hour at room temperature agonists were added and calcium mobilization was detected as change in fluorescence (λex = 488 and λem = 540 nm) using a FLIPR^TETRA (Molecular Devices).

[5] = test system: control CHO cells; experiment: cAMP assay in control CHO cells; type: cell-based, Chinese hamster
Procedure: as §1

[6] = target: T2, mouse GPR120 (Mus musculus, UniProt Q7TMA4); experiment: DMR assay in CHO-mGPR120 cells; type: cell-based
T2 construct: expressed in transfected cells
T2 sequence (Q7TMA4 1-361): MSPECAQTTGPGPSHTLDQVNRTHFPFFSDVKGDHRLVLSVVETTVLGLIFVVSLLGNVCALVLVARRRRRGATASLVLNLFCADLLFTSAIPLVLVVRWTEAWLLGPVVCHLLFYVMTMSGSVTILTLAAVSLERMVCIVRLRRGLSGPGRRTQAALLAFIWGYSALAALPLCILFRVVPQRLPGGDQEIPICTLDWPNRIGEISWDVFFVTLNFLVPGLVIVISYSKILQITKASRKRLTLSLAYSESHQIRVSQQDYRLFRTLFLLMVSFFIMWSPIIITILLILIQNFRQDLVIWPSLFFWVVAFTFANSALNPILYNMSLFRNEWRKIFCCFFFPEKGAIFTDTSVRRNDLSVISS
Procedure: (§2) DMR (dynamic mass redistribution) was measured by resonant waveguide grating (RWG) using an Epic biosensor (Corning). CHO-hGPR120, CHO-mGPR120 and CHO cells in DMEM/F-12 (Invitrogen) were cultured in fibronectin coated 384-well Epic plates (Corning) at 37°C, 95% humidity and 5% CO2 for 5 hours with 10% FBS (Sigma), followed by 19 hours without FBS. CHO-hGPR40 cells were cultured at 37°C, 95% humidity and 5% CO2 for 20–24 hours in Ham’s F-12 Nutrient Mix with GlutaMAX (Invitrogen) supplemented with Non-Essential Amino Acids (Gibco) and 10% FBS (Sigma) in fibronectin coated 384-well Epic plates (Corning). Following the incubations culture media was replaced with HBSS (Invitrogen), 20 mM HEPES (Invitrogen), pH 7.4 and 1% DMSO and equilibrated to 26°C in the Epic for thirty min before addition of agonists and detection of DMR.

[7] = test system: dispersed wt mouse islets cell; experiment: cAMP production in dispersed wild type mouse islet cells; type: cell-based; details: 10 μM agonist, vs control cells
Procedure: Mouse islets were isolated from pancreas by collagenase digestion, handpicked under microscope following multiple washing steps and dispersed to single cells using TrypLE Express (Gibco). The dispersed islet cells (20 000 cells/well) were incubated with the GPR120 agonists for 30 min in 96-well black plates (Corning) at 37°C in Krebs ringer phosphate Hepes buffer, pH 7.4, with 11 mM Glucose, 0.1% BSA and 0.5 mM 3-isobutyl-1-methylxanthine followed by addition of d2-labeled cAMP and anti-cAMP Cryptate in conjugation and lysis buffer (Cisbio). Produced cAMP was detected with homogenous time resolved fluorescence (HTRF) (λex = 340 nm, λem = 665 and 615 nm) using a Pherastar (BMG Labtech).

[8] = test system: control CHO cells; experiment: DMR assay in control CHO cells; type: cell-based, Chinese hamster; details: control CHO cells (empty vector)
Procedure: as §2

Molecule | GLP-1 secretion from STC-1 cells [1] | EC50 ([2]; read-out: β-arrestin EC50, β-arrestin recruitment in U2OS-hGPR120 cells, mean ± SEM) | EC50 [3] | Calcium mobilization after Gαq inhibition [4] | EC50 [4] | cAMP levels in control CHO cells [5] | EC50 [6] | cAMP production in dispersed wt mouse islet cells [7] | DMR response in control CHO cells [8] | EC50 [2]
3-(3,5-difluoro-4-((3-methyl-1-phenyl-1H-pyrazol-5-yl)methoxy)phenyl)-2-methylpropanoic acid [Metabolex-36] | significantly increased GLP-1 secretion | 1400 ± 700 nM | 6700 ± 1000 nM | completely abolished | 1800 ± 190 nM | no increase | 130 ± 20 nM | significantly reduced cAMP production | without activity | –
C#Cc1cc(Oc2cccnc2)cc(N2Cc3ccccc3S2(=O)=O)c1 [AZ13581837, 2-(3-ethynyl-5-(3-pyridyloxy)phenyl)-3H-1,2-benzothiazole 1,1-dioxide] | significantly increased GLP-1 secretion | – | 60 ± 7 nM | completely abolished | 120 ± 20 nM | no increase | 4.3 ± 0.6 nM | significantly reduced cAMP production | without activity | 5.2 ± 0.4 nM
